Results reported in patent US5614520A, “2-arylthiazole derivatives and pharmaceutical composition thereof” (priority 1990, dated 1997).

Experiments:
xanthine oxidase = target: T1, xanthine oxidase (Bos taurus, UniProt P80457); test: In vitro determination of xanthine oxidase (XOD) inhibition; type: biochemical; settings: xanthine oxidase from butter milk, xanthine substrate, pH 7.4, 37° C.
T1 construct: purchased Sigma Chemical Company; host or cells: butter milk
Method: (1) Preparation of test compounds:
Test compounds (compounds of Ex. No. listed in Table 1) were dissolved in dimethylsulfoxide and diluted with a 50 mM phosphate buffer to prepare aqueous solutions respectively having predetermined concentrations.
The inhibition rate was determined by the following equation: [formula]
The inhibition (%) was determined on each test compound prepared according to (1), and the IC50 value on the xanthine oxidase (XOD) inhibition was calculated from the value of inhibition.

interleukin 1 production = test: Interleukin 1 production inhibitory activity (LPS, abdominal exuded macrophage, ELISA); type: cell-based, BALB/c mouse; settings: 10^-6 M, 1 μg/ml LPS, 24 hours, mouse macrophage
Method: 1 ml of a 5% oyster glycogen solution was intra-abdominally administered to a BALB/c mouse (male, 8 weeks in age), and 4 days after the administration, the infiltrated abdominal exuded cells were adhered to a plastic dish for 2 hours, and 1 μg/ml of LPS was allowed to act on macrophage (1×10^6 cells). Interleukin 1 extricated on the supernatant in 24 hours was measured by an ELISA technique. The test compound (compounds of Ex. No. described in Table 3) was prepared so as to have a concentration of 10^-6 M, and the interleukin 1 production inhibitory activity was, expressed in terms of the percentage inhibition based on the amount of production of the control.

serum uric acid = test: Determination of oral administration: lowering of serum uric acid in mice; type: in vivo, ICR male mice; settings: ICR male mice, oral, 1 mg/kg, 2 hours after administration, serum; for inhibition in vivo at 1 mg/kg: Mus musculus, read-out: Activity of lowering uric acid
Method: Test compounds suspended in a 5% gum arabic solution was forcibly administered by oral administration (compounds of Ex. No. of Table 2, dose: 1 mg/kg) to ICR male mice (age: about 7 weeks) (one group: 6 mice) by means of an oral probe. 2 hours after the administration, thoracotomy was conducted under etherization to collect blood from the heart, and serum was removed by a conventional process. The serum uric acid was measured by a biochemical automatic analyzer (Flexigem; Electro-Nucleonics, Inc.) by using a uric acid measurement kit (UA reagent; International Reagent) to determine the percentage of the lowering of uric acid. [formula]

T1 sequence (P80457 whole entry): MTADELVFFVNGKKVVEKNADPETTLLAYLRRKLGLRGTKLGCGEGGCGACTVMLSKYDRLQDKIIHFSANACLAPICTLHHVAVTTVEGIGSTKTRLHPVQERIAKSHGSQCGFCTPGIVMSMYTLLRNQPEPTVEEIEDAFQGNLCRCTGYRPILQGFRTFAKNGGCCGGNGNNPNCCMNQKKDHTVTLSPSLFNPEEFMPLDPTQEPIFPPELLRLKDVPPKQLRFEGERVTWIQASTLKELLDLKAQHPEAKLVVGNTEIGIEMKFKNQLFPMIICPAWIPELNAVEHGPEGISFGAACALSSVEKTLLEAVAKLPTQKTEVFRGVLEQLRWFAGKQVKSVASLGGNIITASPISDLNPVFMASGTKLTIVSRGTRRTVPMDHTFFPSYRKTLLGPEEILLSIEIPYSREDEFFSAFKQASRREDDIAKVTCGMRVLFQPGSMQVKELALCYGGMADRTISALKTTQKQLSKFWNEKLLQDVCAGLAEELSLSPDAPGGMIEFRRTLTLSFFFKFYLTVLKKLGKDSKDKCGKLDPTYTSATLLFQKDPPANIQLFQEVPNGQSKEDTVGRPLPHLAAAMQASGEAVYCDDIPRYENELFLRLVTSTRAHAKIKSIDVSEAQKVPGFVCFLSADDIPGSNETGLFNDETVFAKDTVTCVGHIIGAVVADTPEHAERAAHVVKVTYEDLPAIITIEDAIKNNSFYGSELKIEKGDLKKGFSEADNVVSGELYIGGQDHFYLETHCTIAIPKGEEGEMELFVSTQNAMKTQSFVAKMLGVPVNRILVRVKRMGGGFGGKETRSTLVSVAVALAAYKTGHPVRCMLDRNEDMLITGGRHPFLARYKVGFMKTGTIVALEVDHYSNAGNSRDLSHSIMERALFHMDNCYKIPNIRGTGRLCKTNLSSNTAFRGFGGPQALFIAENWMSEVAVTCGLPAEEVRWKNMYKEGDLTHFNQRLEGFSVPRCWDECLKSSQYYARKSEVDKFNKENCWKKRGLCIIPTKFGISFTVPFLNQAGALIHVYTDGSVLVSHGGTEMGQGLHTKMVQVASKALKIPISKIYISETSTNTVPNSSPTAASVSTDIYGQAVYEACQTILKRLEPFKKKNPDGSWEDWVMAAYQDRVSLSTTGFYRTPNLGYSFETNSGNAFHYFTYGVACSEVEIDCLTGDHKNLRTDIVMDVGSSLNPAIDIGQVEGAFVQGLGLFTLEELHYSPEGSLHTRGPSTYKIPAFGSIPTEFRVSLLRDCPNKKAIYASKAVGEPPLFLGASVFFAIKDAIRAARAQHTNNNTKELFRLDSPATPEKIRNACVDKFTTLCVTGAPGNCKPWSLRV

Compound | IC50 (xanthine oxidase) | inhibition at 1 µM (interleukin 1 production) | inhibition in vivo at 1 mg/kg (serum uric acid) | Activity of lowering uric acid (serum uric acid)
Cc1nc(-c2ccc(OCC(=O)O)cc2)sc1C(=O)O [Example 11, 2-(4-Carboxymethyloxyphenyl)-4-methyl-5-thiazolecarboxylic acid] | 77 nM | 23% | – | –
CC(C)Oc1ccc(-c2nc(O)c(C(=O)O)s2)cc1 [Example 22, 4-Hydroxy-2-(4-isopropoxyphenyl)-5-thiazolecarboxylic acid] | 45 nM | 45% | – | –
Cc1nc(-c2ccc(OCc3ccc(F)cc3)c(Cl)c2)sc1C(=O)O [Example 58, 2-(3-Chloro-4-(4-fluorobenzyloxy)phenyl)-4-methyl-5-thiazolecarboxylic acid] | 3.4 nM | 19% | 18% | –
Cc1nc(-c2cc(Cl)c(O)c(Cl)c2)sc1C(=O)O [Example 28, 2-(3,5-Dichloro-4-hydroxyphenyl)-4-methyl-5-thiazolecarboxylic acid] | 26 nM | 52% | – | –
Cc1nc(-c2ccc(OCCCCC(=O)O)cc2)sc1C(=O)O [Example 12, 2-(4-(4-Carboxybutyloxy)phenyl)-4-methyl-5-thiazolecarboxylic acid] | 12 nM | 42% | – | –
Cc1ccc(C(=O)c2ccc(-c3nc(C)c(C(=O)O)s3)cc2)cc1 [Example 74, 4-Methyl-2-(4-(4-methylbenzoyl)phenyl)-5-thiazolecarboxylic acid] | 4.8 nM | 52% | 39% | –
Cc1nc(-c2cccc(OC(C)C)c2)sc1C(=O)O [Example 1, 2-(3-isopropoxyphenyl)-4-methyl-5-thiazolecarboxylic acid] | 67 nM | 83% | – | –
CCC(CC)COc1ccc(-c2nc(C)c(C(=O)O)s2)cc1Cl [Example 53, 2-(3-Chloro-4-(2-ethylbutyloxy)phenyl)-4-methYl-5-thiazolecarboxylic acid] | 2.7 nM | – | 29% | –
Cc1nc(-c2ccc(OCC(C)(C)C)c(C(F)(F)F)c2)sc1C(=O)O [Example 84, 4-Methyl-2-(4-neopentyloxy-3-trifluoromethylphenyl)-5-thiazolecarboxylic acid] | 2.9 nM | – | 80% | –
Cc1nc(-c2ccc(OCC3CCCCC3)cc2)sc1C(=O)O [Example 7, 2-(4-Cyclohexylmethyloxyphenyl)-4-methyl-5-thiazolecarboxylic acid] | 46 nM | 39% | – | –
Cc1nc(-c2ccc(OCCCC3CCCCC3)cc2)sc1C(=O)O [Example 8, 2-(4-(3-Cyclohexylpropyloxy)phenyl)-4-methyl-5-thiazolecarboxylic acid] | 3.2 nM | – | 28% | –
Cc1nc(-c2ccc(C(=O)O)cc2)sc1C(=O)O [Example 14, 2-(4-Carboxyphenyl)-4-methyl-5-thiazolecarboxylic acid] | 3.2 nM | 35% | – | –
CCOCCOc1ccc(-c2nc(C)c(C(=O)O)s2)cc1Cl [Example 55, 2-(3-Chloro-4-(2-ethoxyethyloxy)phenyl)-4-methyl-5-thiazolecarboxylic acid] | 7 nM | – | 45% | –
Cc1nc(-c2cc(Cl)cc(Cl)c2)sc1C(=O)O [Example 27, 2-(3,5-Dichlorophenyl)-4-methyl-5-thiazolecarboxylic acid] | 10 nM | 43% | – | –
Cc1nc(-c2ccc(OCC(C)(C)C)c(Cl)c2)sc1C(=O)O [Example 54, 2-(3-Chloro-4-neopentyloxyphenYl)-4-methyl-5-thiazolecarboxylic acid] | 2.9 nM | – | 12% | –
Cc1nc(-c2cccc(C(=O)Nc3ccc(Cl)cc3)c2)sc1C(=O)O [Example 15, 2-(3-(4-chlorophenylcarbamoyl)phenyl)-4-methyl-5-thiazolecarboxylic acid] | 150 nM | 38% | – | –
CCOCCOc1ccc(-c2nc(C)c(C(=O)O)s2)cc1[N+](=O)[O-] [Example 39, 2-(4-(2-Ethoxyethyloxy)-3-nitrophenyl)-4-methyl-5-thiazolecarboxylic acid] | 2.9 nM | – | 82% | –
Cc1nc(-c2ccc(C(F)(F)F)cc2)sc1C(=O)O [Example 6, 4-Methyl-2-(4-trifluoromethylphenyl)-5-thiazolecarboxylic acid] | 310 nM | 38% | – | –
Cc1nc(-c2ccc(OCC(C)C)c([N+](=O)[O-])c2)sc1C(=O)O [Example 34, 2-(4-Isobutyloxy-3-nitrophenyl)-4-methyl-5-thiazolecarboxylic acid] | 2.4 nM | – | 76% | –

Now from value to compound, other results behind:

IC50 (xanthine oxidase) | Compound | inhibition at 1 µM (interleukin 1 production) | inhibition in vivo at 1 mg/kg (serum uric acid) | Activity of lowering uric acid (serum uric acid)
2.3 nM | CCOc1ccc(-c2nc(C)c(C(=O)O)s2)cc1Cl [Example 49, 2-(3-chloro-4-ethoxyphenyl)-4-methyl-5-thiazolecarboxylic acid] | 48% | 35% | –
2.4 nM | Cc1nc(-c2ccc(OC(C)C)c(Cl)c2)sc1C(=O)O [Example 50, 2-(3-Chloro-4-isopropoxyphenyl)-4-methyl-5-thiazolecarboxylic acid] | 42% | 20% | –
1.6 nM | Cc1nc(-c2ccc(N3CCCCC3)c([N+](=O)[O-])c2)sc1C(=O)O [Example 44, 4-methyl-2-(3-nitro-4-piperidinophenyl)-5-thiazolecarboxylic acid] | 22% | 83% | –
1.6 nM | Cc1nc(-c2ccc(Sc3ccc(Cl)cc3)c(Br)c2)sc1C(=O)O [Example 65, 2-(3-Bromo-4-(4-chlorophenylthio)phenyl)-4-methyl-5-thiazolecarboxylic acid] | – | 42% | –
0.32 nM | CCCCCCOc1ccc(-c2nc(C)c(C(=O)O)s2)cc1[N+](=O)[O-] [Example 41, 2-(4-n-Hexyloxy-3-nitrophenyl)-4-methyl-5-thiazolecarboxylic acid] | – | 92% | –
0.38 nM | Cc1nc(-c2ccc(N3CCOCC3)c(Cl)c2)sc1C(=O)O [Example 59, 2-(3-chloro-4-morpholinophenyl)-4-methyl-5-thiazolecarboxylic acid] | – | 62% | –
1.1 nM | Cc1nc(-c2ccc(OCC(C)C)c(C(F)(F)F)c2)sc1C(=O)O [Example 83, 2-(4-isobutyloxy-3-trifluomethylphenyl)-4-methyl-5-thiazolecarboxylic acid] | – | 86% | –
0.36 nM | CCOc1ccc(-c2nc(C)c(C(=O)O)s2)cc1[N+](=O)[O-] [Example 33, 2-(4-Ethoxy-3-nitrophenyl)-4-methyl-5-thiazolecarboxylic acid] | – | 71% | –
1.8 nM | 2-(4-morpholino-3-nitrophenyl)-4-methyl-5-thiazolecarboxylic acid [Example 38] | – | – | 91%
0.12 nM | Cc1nc(-c2ccc(OCC(C)(C)C)c(I)c2)sc1C(=O)O [Example 85, 2-(3-iodo-4-neopentyloxyphenyl)-4-methyl-5-thiazolecarboxylic acid] | – | 77% | –
1.9 nM | Cc1nc(-c2ccc(OCC(C)(C)C)c(C#N)c2)sc1C(=O)O [Example 78, 2-(3-Cyano-4-neopentyloxyphenyl)-4-methyl-5-thiazolecarboxylic acid] | – | 91% | –
0.94 nM | Cc1nc(-c2ccc(OCC(C)C)c(Br)c2)sc1C(=O)O [Example 63, 2-(3-bromo-4-isobutyloxyphenyl)-4-methyl-5-thiazolecarboxylic acid] | – | 35% | –
1.5 nM | Cc1nc(-c2cc(Cl)c(OCC(C)C)c(Cl)c2)sc1C(=O)O [Example 69, 2-(3,5-Dichloro-4-isobutyloxyphenyl)-4-methyl-5-thiazolecarboxylic acid] | – | 55% | –
1.5 nM | Cc1nc(-c2cc(Cl)c(OCCC(C)C)c(Cl)c2)sc1C(=O)O [Example 71, 2-(3,5-Dichloro-4-isopentyloxyphenyl)-4-methyl-5-thiazolecarboxylic acid] | – | 50% | –
1.7 nM | Cc1nc(-c2ccc(N3CCOCC3)c(C#N)c2)sc1C(=O)O [Example 81, 2-(3-Cyano-4-morpholinophenyl)-4-methyl-5-thiazolecarboxylic acid] | – | 91% | –
0.64 nM | Cc1nc(-c2ccc([S+]([O-])c3ccc(Cl)cc3)c(Cl)c2)sc1C(=O)O (stereo not drawn) [Example 62, 2-(3-chloro-4-(4'-chlorophenylsulfinyl)phenyl)-4-methyl-5thiazolecarboxylic acid] | – | 35% | –
